assay: Solubility (solvent listed in compound tables); assay type: physicochemical; settings: solvent named, Table 3

Row | SOLUBILITY | Compound
1 | DMSO | Cc1cc(NCCNc2ccnc3cc(Cl)ccc23)nc(N2CCCCC2)n1 [SM 490]
2 | DMSO | Clc1ccc2c(NCCCNc3cc(Cl)nc(N4CCCCC4)n3)ccnc2c1 [SM 711]
3 | DMSO | CCN1CCN(c2nc(C)cc(NCCCCNc3ccnc4cc(Cl)ccc34)n2)CC1 [SM 502]
4 | DMSO | CN1CCN(c2cc(Cl)nc(NCCNc3ccnc4cc(Cl)ccc34)n2)CC1 [SM 703]
5 | DMSO | Clc1ccc2c(NCCCNc3cc(Cl)nc(N4CCOCC4)n3)ccnc2c1 [SM 712]
6 | DMSO | Clc1ccc2c(NCCNc3ccnc(Cl)n3)ccnc2c1 [SM 728A]
7 | DMSO | Cc1cc(NCCCCNc2ccnc3cc(Cl)ccc23)nc(N2CCOCC2)n1 [SM 500]
8 | DMSO | Cc1cc(NCCCNc2ccnc3cc(Cl)ccc23)nc(Cl)n1 [SM 484A]
9 | DMSO | Cc1cc(Cl)nc(NCCNc2ccnc3cc(Cl)ccc23)n1 [SM 488B]
10 | DMSO | Cc1cc(N2CCN(c3ccnc4cc(Cl)ccc34)CC2)nc(Cl)n1 [ATH 237]
11 | DMSO | Clc1ccc2c(NCCCNc3nccc(N4CCOCC4)n3)ccnc2c1 [SM 725]
12 | DMSO | OCCNc1nccc(N2CCN(c3ccnc4cc(Cl)ccc34)CC2)n1 [ATH 254]
13 | DMSO | COc1ccc(Nc2nc(NCCCNc3c4ccc(Cl)cc4nc4ccc(OC)cc34)nc(NC3CCCCC3)n2)cc1 [ATH 201]
14 | DMSO | Cc1cc(NCCCCCCNc2ccnc3cc(Cl)ccc23)nc(N2CCOCC2)n1 [SM 506]
15 | DMSO | Cc1cc(NCCCCNc2ccnc3cc(Cl)ccc23)nc(Cl)n1 [SM 498A]
16 | DMSO | OCCNc1nc(NCCCNc2ccnc3cc(Cl)ccc23)nc(N2CCOCC2)n1 [SM 353]
17 | DMSO | COc1cc(Nc2nc(NCCCNc3c4ccc(Cl)cc4nc4ccc(OC)cc34)nc(N3CCN(c4ccccc4)CC3)n2)cc(OC)c1 [ATH 171]
18 | DMSO | Cc1cc(Cl)nc(NCCCCNc2ccnc3cc(Cl)ccc23)n1 [SM 498B]
19 | DMSO | COc1cc(Nc2cc(C)nc(N3CCN(c4ccnc5cc(Cl)ccc45)CC3)n2)cc(OC)c1 [ATH 244]
20 | DMSO | Fc1ccc(Nc2ccnc(N3CCN(c4ccnc5cc(Cl)ccc45)CC3)n2)cc1 [ATH 223]
21 | DMSO | CCc1ccc(Nc2nc(NCCNc3ccnc4cc(Cl)ccc34)nc(N3CCOCC3)n2)cc1 [SM 335]

Row | SOLUBILITY | Compound
22 | DMSO | Cc1cc(NCCCNc2ccnc3cc(Cl)ccc23)nc(N2CCOCC2)n1 [SM 493]
23 | DMSO | Cc1cc(Cl)nc(NCCCNc2ccnc3cc(Cl)ccc23)n1 [SM 484B]
24 | DMSO | Clc1ccc2c(NCCCNc3cc(Cl)nc(Cl)n3)ccnc2c1 [SM 710A]
25 | DMSO | COc1cc(Nc2ccnc(N3CCN(c4ccnc5cc(Cl)ccc45)CC3)n2)cc(OC)c1 [ATH 214]
26 | DMSO | Clc1ccc2c(NCCCNc3nc(Cl)cc(N4CCOCC4)n3)ccnc2c1 [SM 716]
27 | DMSO | CCN1CCN(c2ccnc(NCCCNc3ccnc4cc(Cl)ccc34)n2)CC1 [SM 727]
28 | DMSO | CN1CCN(c2cc(Cl)nc(NCCCNc3ccnc4cc(Cl)ccc34)n2)CC1 [SM 717]
29 | DMSO | CCc1ccc(Nc2nc(NCCCCNc3ccnc4cc(Cl)ccc34)nc(N3CCOCC3)n2)cc1 [SM 358]
30 | DMSO | COc1cc(Nc2nc(NCCCNc3c4ccc(Cl)cc4nc4ccc(OC)cc34)nc(N3CCCCC3)n2)cc(OC)c1 [ATH 159]
31 | DMSO | CN1CCN(c2ccnc(NCCNc3ccnc4cc(Cl)ccc34)n2)CC1 [SM 734]
32 | DMSO | Clc1ccc2c(NCCCNc3nc(Nc4ccccc4)nc(N4CCOCC4)n3)ccnc2c1 [SM 341]
33 | DMSO | Clc1ccc2c(NCCCNc3nccc(N4CCCCC4)n3)ccnc2c1 [SM 724]
34 | DMSO | COc1ccc(Nc2nc(NCCNCc3c4ccc(Cl)cc4nc4ccc(OC)cc34)nc(N3CCCCC3)n2)cc1 [ATH 191]
35 | DMSO | Fc1ccc(Nc2nc(NCCCCNc3ccnc4cc(Cl)ccc34)nc(N3CCOCC3)n2)cc1 [SM 357]
36 | DMSO | Clc1ccc2c(N3CCN(c4ccnc(Cl)n4)CC3)ccnc2c1 [ATH 218]
37 | DMSO | Clc1ccc2c(NCCNc3nc(Cl)nc(Nc4ccccc4)n3)ccnc2c1 [SM 136]
38 | DMSO | Clc1ccc2c(NCCNc3cc(Cl)nc(N4CCCCC4)n3)ccnc2c1 [SM 697]
39 | DMSO | Clc1ccc2c(N3CCN(c4ccnc(N5CCCC5)n4)CC3)ccnc2c1 [ATH 252]
40 | DMSO | Clc1ccc2c(NCCCNc3ccnc(N4CCCCC4)n3)ccnc2c1 [SM 720]
41 | DMSO | COc1ccc(Nc2nc(NCCNc3c4ccc(Cl)cc4nc4ccc(OC)cc34)nc(N3CCCCC3)n2)cc1 [ATH 189]
42 | DMSO | COc1cc(Nc2nc(NCCNc3c4ccc(Cl)cc4nc4ccc(OC)cc34)nc(N3CCCCC3)n2)cc(OC)c1 [ATH 158]

Row | SOLUBILITY | Compound
43 | DMSO | Clc1ccc2c(NCCNc3nc(Cl)cc(N4CCCCC4)n3)ccnc2c1 [SM 699]
44 | DMSO | Clc1ccc2c(NCCCNc3nc(Cl)cc(Cl)n3)ccnc2c1 [SM 710B]
45 | DMSO | Cc1cc(NCCCCCCNc2ccnc3cc(Cl)ccc23)nc(N2CCN(C)CC2)n1 [SM 507]
46 | DMSO | OCCCCNc1nc(NCCCCNc2ccnc3cc(Cl)ccc23)nc(N2CCOCC2)n1 [SM 362]
47 | DMSO | COc1ccc2nc3cc(Cl)ccc3c(CNCCNc3nc(N4CCN(c5ccccc5)CC4)nc(N4CCN(c5ccccc5)CC4)n3)c2c1 [ATH 179]
48 | DMSO | COc1cc(Nc2nc(NCCNc3c4ccc(Cl)cc4nc4ccc(OC)cc34)nc(N3CCN(c4ccccc4)CC3)n2)cc(OC)c1 [ATH 170]
49 | DMSO | CCN1CCN(c2cc(Cl)nc(NCCNc3ccnc4cc(Cl)ccc34)n2)CC1 [SM 704]
50 | DMSO | Cc1cc(NCCCNc2ccnc3cc(Cl)ccc23)nc(N2CCCCC2)n1 [SM 485]
51 | DMSO | Cc1cc(NCCCCCCNc2ccnc3cc(Cl)ccc23)nc(N2CCCCC2)n1 [SM 505]
52 | DMSO | Clc1ccc2c(NCCNc3nc(Nc4ccccc4)nc(Nc4ccccc4)n3)ccnc2c1 [SM 129]
53 | DMSO | OCCCCNc1nc(NCCCNc2ccnc3cc(Cl)ccc23)nc(N2CCOCC2)n1 [SM 361]
54 | DMSO | Clc1ccc2c(NCCCCNc3nc(Nc4ccccc4)nc(N4CCOCC4)n3)ccnc2c1 [SM 359]
55 | DMSO | Cc1cc(Cl)nc(NCCCCCCNc2ccnc3cc(Cl)ccc23)n1 [SM 504B]
56 | DMSO | Fc1ccc(Nc2nc(NCCNc3ccnc4cc(Cl)ccc34)nc(N3CCOCC3)n2)cc1 [SM 334]
57 | DMSO | Cc1cc(NCCCNc2ccnc3cc(Cl)ccc23)nc(N2CCN(C)CC2)n1 [SM 494]
58 | DMSO | CCc1ccc(Nc2nc(NCCCNc3ccnc4cc(Cl)ccc34)nc(N3CCOCC3)n2)cc1 [SM 340]
59 | DMSO | OCCCCNc1nc(NCCCCNc2ccnc3cc(Cl)ccc23)nc(N2CCCCC2)n1 [SM 375]
60 | DMSO | OCCCNc1nc(NCCNc2ccnc3cc(Cl)ccc23)nc(N2CCCCC2)n1 [SM 370]
61 | DMSO | COc1cc(Nc2nc(NCCNCc3c4ccc(Cl)cc4nc4ccc(OC)cc34)nc(NC3CCCCC3)n2)cc(OC)c1 [ATH 194]
62 | DMSO | COc1ccc(Nc2nc(NCCNc3c4ccc(Cl)cc4nc4ccc(OC)cc34)nc(N3CCN(c4ccccc4)CC3)n2)cc1 [ATH 164]
63 | DMSO | Clc1ccc2c(N3CCN(c4ccnc(N5CCOCC5)n4)CC3)ccnc2c1 [ATH 228]

Row | Compound | SOLUBILITY
64 | Cc1cc(NCCNc2ccnc3cc(Cl)ccc23)nc(N2CCN(C)CC2)n1 [SM 491] | DMSO
65 | CCN1CCN(c2nc(C)cc(NCCCNc3ccnc4cc(Cl)ccc34)n2)CC1 [SM 497] | DMSO

same assay, conditions: solvent named, Table 4

Row | SOLUBILITY | Compound
66 | DMSO | Clc1ccc2c(NCCCCNc3nccc(Nc4ccccc4)n3)ccnc2c1 [DKG823]
67 | DMSO | Cc1ccc(Nc2cc(C)nc(NCCCCNc3ccnc4cc(Cl)ccc34)n2)cc1 [DKG859]
68 | DMSO | Cc1cc(Nc2ccc(Cl)cc2)nc(NCCCNc2ccnc3cc(Cl)ccc23)n1 [DKG846]
69 | DMSO | Clc1ccc2c(NCCNc3nccc(Nc4ccc(Br)cc4)n3)ccnc2c1 [DKG809]
70 | DMSO | Cc1ccc(Nc2ccnc(NCCNc3ccnc4cc(Cl)ccc34)n2)cc1 [DKG805]
71 | DMSO | Cc1cc(Nc2ccc(Cl)cc2)nc(NCCCCNc2ccnc3cc(Cl)ccc23)n1 [DKG847]
72 | DMSO | COc1ccc(Nc2ccnc(NCCNc3ccnc4cc(Cl)ccc34)n2)cc1 [DKG825]
73 | DMSO | COc1ccc(Nc2ccnc(NCCCNc3ccnc4cc(Cl)ccc34)n2)cc1 [DKG826]
74 | DMSO | Cc1cc(Nc2ccc(Br)cc2)nc(NCCCCNc2ccnc3cc(Cl)ccc23)n1 [DKG851]
75 | DMSO | Cc1ccc(Nc2ccnc(NCCCNc3ccnc4cc(Cl)ccc34)n2)cc1 [DKG806]
76 | DMSO | Cc1ccc(Nc2ccnc(NCCCCNc3ccnc4cc(Cl)ccc34)n2)cc1 [DKG807]
77 | DMSO | Clc1ccc2c(NCCCNc3nccc(Nc4ccc(Br)cc4)n3)ccnc2c1 [DKG810]
78 | DMSO | Cc1cc(Nc2ccc(Br)cc2)nc(NCCCNc2ccnc3cc(Cl)ccc23)n1 [DKG850]
79 | DMSO | Cc1ccc(Nc2cc(C)nc(NCCNc3ccnc4cc(Cl)ccc34)n2)cc1 [DKG857]

same assay, conditions: solvents listed for the compound

Row | SOLUBILITY | Compound
80 | MeOH, DMSO | OCCCCCCNc1nccc(NCCCCNc2ccnc3cc(Cl)ccc23)n1 [MT1-163]
81 | MeOH, DMSO | OCCCNc1nccc(NCCCCNc2ccnc3cc(Cl)ccc23)n1 [MT1-157]
82 | MeOH, DMSO | OCCCCNc1nccc(NCCCNc2ccnc3cc(Cl)ccc23)n1 [MT1-122]
83 | MeOH, DMSO | Cc1cc(NCCNc2ccnc3cc(Cl)ccc23)nc(NCCCCO)n1 [MT1-189]
84 | MeOH, DMSO | Cc1cc(NCCCCNc2ccnc3cc(Cl)ccc23)nc(NCCCCO)n1 [MT1-194]
85 | MeOH, DMSO | Cc1cc(NCCCNc2ccnc3cc(Cl)ccc23)nc(NCCCO)n1 [MT1-146]
86 | MeOH, DMSO | Cc1cc(NCCNc2ccnc3cc(Cl)ccc23)nc(NCCCCCO)n1 [MT1-190]
87 | MeOH, DMSO | OCCNc1nccc(NCCCCNc2ccnc3cc(Cl)ccc23)n1 [MT1-156]

Reference: patent US11026943B2, “Aminoquinoline derivatives and uses thereof” (UNIVERSITY OF DELHI, priority 2012, dated 2021)
